According to PMC9666555, “Genuine selective caspase-2 inhibition with new irreversible small peptidomimetics” (Cell Death & Disease, 2022):
Non-standard residues stand in square brackets, D forms with d. Residues, ends and D or L forms follow the SMILES beside them. ξ: configuration not given here. *: point of attachment. ξTHIQ1CO(6-Me) = Cc1ccc2c(c1)CCNC2C(=O)O; X1 = O=C(O)CC(N*)C(=O)COc1c(F)cccc1F; Quinaldoyl = O=C(c1ccc2ccccc2n1)*

Experiments:
[1] = test system: Molt4 lymphoid human cells; assay: Panobistat (LBH589)-induced cell death in Molt4 cells (propidium iodide, flow cytometry); format: cell-based; conditions: Molt4, 1 h pretreatment (30 µM or indicated doses), 25 nM LBH589 24 h
Protocol: HeLa cells (obtained from ATCC) were cultured in Dulbecco’s Modified Eagle Medium (DMEM, High Glucose, GlutaMAX™, Pyruvate) supplemented with antibiotics and 10% fetal calf serum (FCS) (Gibco, Life Technologies) and maintained in T75 Flasks at 1 × 10^6 cells per flask. Twenty-four hours before treatments, HeLa cells were transferred to 6-well plates (8 × 10^4 cells/well). The lymphoblastoid cell line Molt4cl8 was a gift from Dr. Bernard Krust (Inserm, University Paris 5) and was cultured in RPMI 1640 Glutamax medium supplemented with Hepes, antibiotics, and 10% FCS. HEK293 cells were obtained from ATCC (CRL-1573) and cultured in DMEM with Glutamax and 25 mM glucose (Life Technologies) supplemented with 10% FCS and antibiotics. For cell death induction, the following agents were added to cell cultures: Vincristine (Sigma) and Panobistat (LBH589; Selleck). Cell death was analyzed using fluorescence microscopy (Axio-observer Z1, Zeiss; equipped with CCD camera CoolsnapHQ2, Ropert Scientific) and cytofluorometry (MACSQuant® VYB; Miltenyi Biotec, Bergisch Gladbach, Germany) after labeling with propidium iodide (1 µg/mL; 10 min; 37 °C; Life Technologies) and Hoechst 33342 (1 µg/mL; 5 min; RT; Sigma).
Fig. 5 LJ2 inhibits cell death induced by microtubule destabilization and hydroxamic acid-based deacetylase (HDAC) inhibition. a Effect of the irreversible Caspase-2 inhibitors LJ2 against vincristine-induced cell death. HeLa cells were pretreated for 1 h with the indicated doses of LJ2, Q-VD-OPh, or Q-LETD-OPh, then treated with vincristine (VCR) as in Fig. 2, then incubated with propidium iodide at 2 μg/mL for 10 min and analyzed by flow cytometry. […] Molt4 lymphoid human cells where were pretreated for 1 h with 30 µM of LJ2, Q-VD-OPh, or Belnacasan (VX-765), then treated for 24 h with 25 nM of LBH589, then incubated with propidium iodide as in (a) and analyzed by flow cytometry. […] Molt4 cells were treated as in (b) with the indicated doses of LJ2 or Q-VD-OPh and analyzed by flow cytometry. […]

Kallikrein-8 = molecular target: T1, Kallikrein-8 (Homo sapiens, UniProt O60259); assay: Non-caspase enzyme assay, Kallikrein-8; format: biochemical; conditions: concentrations up to 10 µM
T1 construct: purchased R&D Systems 2025-SE-010
Protocol: Stock solutions were stored at −80 °C. […]
Non-caspase enzyme assays
The human pro- kallikrein-1 (pro-hK1) was activated in a buffer containing: Tris-HCl 50 mM, CaCl2 10 mM, NaCl 150 mM, Brij-35 0,05% pH 7,5. Human pro-kallikrein-6 and -8 (pro-hK6 and 8 were activated using Lysyl-endopeptidase (Wako- BioProducts®) at a 1/500 weight ratio, in a buffer containing 50 mM Tris and 0,05% Brij-35 (pH 8). Kinetics using non-caspase enzymes for selectivity studies were done according to the following conditions.
Enzymes Substrates Buffers
Cathepsine B (0.2 nM) z-RR-AMC 20 µM Acétate de sodium 0,1 M; EDTA 1mM ; […]
Cathepsine L (1.2 nM) RLR-AMC 25 µM Acétate de sodium 0,1 M; EDTA 1mM ; […]
Cathepsine D (0.1 nM) Mca-Gly-Ly s-Pro-Ile-Leu-Phe-Phe- Citrate de Sodium 0,1 M; EDTA 2 mM ; Arg-Leu-Lys(Dnp)-D-Arg-NH2 10 µM Brij-35 0,01%; pH 4 hK1 (4 nM) Boc-VPR-AMC 100µM Tris 50mM; Citrate 1M; Brij-35 0.05%; pH7 hK6 (2 nM ) Boc-QAR -AMC 100 µM Tris 50mM; Citrate 1M; Brij-35 0.05%; pH7 hK8 (1 nM) Boc-VPR-AMC 100µM Tris 50mM; Citrate 1M; Brij-35 0.05%; pH7
Thrombine (10 mU/mL) Boc-VPR-AMC 100µM Tris 50mM; Citrate 1M; Brij-35 0.05%; pH7 Plasmine (4 nM ) Boc-QAR -AMC 100µM Tris 50mM; Citrate 1M; Brij-35 0.05%; pH7 Trypsine (0.1 nM) Boc-QAR -AMC 100µM Tris 50mM; Citrate 1M; Brij-35 0.05%; pH7

[2] = molecular target: human recombinant Caspase-1 (Homo sapiens, UniProt P29466); assay: Additional enzyme kinetics, Caspase-1; conditions: concentrations up to 10 µM
Chain of human recombinant Caspase-1 (P29466 120-297 limits assumed): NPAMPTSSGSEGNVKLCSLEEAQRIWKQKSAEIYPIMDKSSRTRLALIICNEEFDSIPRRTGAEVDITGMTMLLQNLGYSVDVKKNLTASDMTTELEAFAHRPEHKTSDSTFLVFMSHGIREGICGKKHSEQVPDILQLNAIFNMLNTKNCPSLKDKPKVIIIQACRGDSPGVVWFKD
Chain of human recombinant Caspase-1 (P29466 317-404 limits assumed): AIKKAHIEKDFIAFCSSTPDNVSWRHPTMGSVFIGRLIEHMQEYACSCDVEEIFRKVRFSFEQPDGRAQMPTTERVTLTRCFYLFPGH
Protocol: The human active recombinant Caspase-3 (#707-C3) was purchased from R&D Systems (Minneapolis, USA). […] Stock solutions were stored at −80 °C. […] Caspase inhibitors were solubilized in DMSO at 10 mM and stored at −80 °C.
Initial velocity (V0) was determined from the linear portion of the progress curve. The composition of the activity buffer was: 20 mM HEPES, pH 7.4; 0.1% CHAPS, 5 mM DTT, 2 mM EDTA; 800 mM sodium succinate for Caspase-2 (0.2 nM) with 25 µM of Ac-VDVAD-7-amino-3-methylcoumarin (AMC) and 20 mM HEPES, pH 7.4; 0.1% CHAPS, 5 mM DTT, 2 mM EDTA; supplemented with 1 mg/mL of stabilizing agent bovine serum albumin (BSA) for Caspase-3 (0.1 nM) with 10 μM of Ac-DEVD-AMC. Compounds (0.001–100 µM) were tested in duplicate for each inhibitor concentration to detect their inhibitory potential. Enzymes and compounds were incubated for 30 min before initiating enzymatic reaction by adding substrate. Initial rates determined in control experiments (V0) were considered as 100% of the caspase activity; initial rates that were below 100% in the presence of tested compound (Vi) were considered as inhibition. The inhibitory activity of compounds was expressed as IC50 (Inhibitor concentration giving 50% inhibition). The values of IC50 were calculated by fitting the experimental data using Mars data Analysis 2.0 and KaleidaGraph software.1 %Inhibition=1001−Vi/V0=100I0/IC50+I0

T1 sequence (O60259 33-260): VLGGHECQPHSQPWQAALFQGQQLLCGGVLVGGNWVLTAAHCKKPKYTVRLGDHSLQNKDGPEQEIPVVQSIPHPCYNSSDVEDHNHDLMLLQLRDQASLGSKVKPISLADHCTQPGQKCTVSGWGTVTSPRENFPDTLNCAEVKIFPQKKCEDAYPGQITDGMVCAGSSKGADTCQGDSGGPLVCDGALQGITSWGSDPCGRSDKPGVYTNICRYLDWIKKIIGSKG

Structure (SMILES)	effect against Panobistat (LBH589)-induced cell death [1]	effect on Kallikrein-8 (Kallikrein-8)	effect on Caspase-1 [2]
Cc1ccc2c(c1)CCN(C(=O)[C@@H](NC(=O)[C@H](CC(=O)O)NC(=O)[C@@H](NC(=O)c1ccc3ccccc3n1)C(C)C)C(C)C)C2C(=O)NC(CC(=O)O)C(=O)COc1c(F)cccc1F (stereo partly drawn) [LJ2, Quinolin-2-carbonyl-VDV-(methyl-isoquinolyl)-D-CH2-O(2,6F2)Ph] (Quinaldoyl-VDV[ξTHIQ1CO(6-Me)]-X1)	dose-dependent inhibition of cell death	–	–
CC(C)[C@H](NC(=O)c1ccc2ccccc2n1)C(=O)N[C@@H](CC(=O)O)C(=O)N[C@H](C(=O)N1CC[C@H](CC(C)(C)C)[C@@H]1C(=O)NC(CC(=O)O)C(=O)COc1c(F)cccc1F)C(C)C (stereo partly drawn) [LJ3a]	–	very limited or no effect	very limited or no effect
